Here are results for four molecules from patent US20210115104A1, “AMYLIN ANALOGUES” (Zealand Pharma A/S, priority 2015, published 2021).

The term EC50 denotes the midpoint of the concentration-response curve.

The target of assay [1] is T1, human calcitonin receptor (hCTR2) (Homo sapiens, UniProt P30988).
T1 construct: expressed in transfected cells
T1 sequence (P30988 25-474): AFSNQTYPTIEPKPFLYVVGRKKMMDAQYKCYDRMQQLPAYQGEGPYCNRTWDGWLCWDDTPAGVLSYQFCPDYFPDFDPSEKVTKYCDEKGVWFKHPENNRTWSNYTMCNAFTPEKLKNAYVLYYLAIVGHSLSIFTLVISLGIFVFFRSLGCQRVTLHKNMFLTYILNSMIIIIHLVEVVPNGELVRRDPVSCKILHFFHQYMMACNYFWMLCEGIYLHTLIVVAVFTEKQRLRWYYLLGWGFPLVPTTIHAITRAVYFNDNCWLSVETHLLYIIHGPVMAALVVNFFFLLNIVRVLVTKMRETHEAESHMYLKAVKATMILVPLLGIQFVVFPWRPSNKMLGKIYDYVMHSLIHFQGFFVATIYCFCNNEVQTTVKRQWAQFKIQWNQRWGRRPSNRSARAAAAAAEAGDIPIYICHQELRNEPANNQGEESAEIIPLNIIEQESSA
The experiment in a line: hCTR2 cAMP assay (AlphaScreen) in COS7 cells. The class given is cell-based. Conditions: cAMP induction, COS7 cells expressing hCTR2; Table 1; read-out: hCTR2 EC50. The procedure, abridged: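 Stable hCTR2 clone in RAMP-naïve COS7 cells stimulated 15 min at 37 °C with increasing peptide concentrations in Tyrode buffer pH 7.4 containing IBMX and 0.1% casein. cAMP in lysates measured by AlphaScreen; EC50 from 4-parameter logistic fit.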
Background: Changes in cAMP serve as a functional read-out for many G protein-coupled receptors.

Assay [2] deals with T2, human amylin receptor 3 (hAMYR3), hCTR2 co-expressed with hRAMP3 (Homo sapiens, UniProt O60896+P30988).
T2 construct: expressed in transfected cells
T2 sequence (P30988 25-474): T1 sequence (P30988 25-474)
T2 sequence (O60896 24-148 partner): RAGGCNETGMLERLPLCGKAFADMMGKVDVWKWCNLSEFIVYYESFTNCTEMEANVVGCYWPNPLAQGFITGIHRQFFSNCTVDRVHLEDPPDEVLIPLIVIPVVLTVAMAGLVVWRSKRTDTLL
The experiment in a line: hAMYR3 cAMP assay (AlphaScreen) in COS7 cells. Format: cell-based. The settings on record: cAMP induction, COS7 cells expressing hAMYR3; Table 1; read-out: hAMYR3 EC50. The procedure, abridged: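 Stable COS7 clone co-expressing hCTR2 and hRAMP3 was exposed to increasing peptide concentrations in Tyrode buffer (pH 7.4) with 100 µM IBMX and 0.1% casein for 15 min at 37 °C. Lysate cAMP was measured by AlphaScreen; EC50 came from 4-parameter logistic fitting.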

*1 amine or outer side, *2 acyl side, *3 side chain or, on linkers, in order; H or OH if unused. Where a SMILES comes first, the peptide text is derived from it. Bridges are numbered along the chain shown (N, C = ends). [ ]: non-standard residue; d: D form. The star is where a group is joined. C20 diacid = O=C(O)CCCCCCCCCCCCCCCCCCC(=O)*; γGlu = O=C(O)[C@H](CCC(=O)[*:2])N[*:1]; Hyp = O=C(O)[C@@H]1C[C@@H](O)CN1; NMeI = CC[C@H](C)[C@H](NC)C(=O)O; Aad = N[C@@H](CCCC(=O)O)C(=O)O; Sar = CNCC(=O)O

`CC[C@H](C)[C@@H](C(=O)N[C@@H](CC(C)C)C(=O)N[C@@H](CO)C(=O)N[C@@H](CO)C(=O)N[C@H](C(=O)N[C@@H](CCC(=O)O)C(=O)N[C@H](C(=O)NCC(=O)N[C@@H](CO)C(=O)N[C@H](C(=O)N[C@H](C(=O)N1CCC[C@H]1C(N)=O)[C@@H](C)O)[C@@H](C)O)C(C)C)[C@@H](C)O)N(C)C(=O)[C@H](C)NC(=O)CN(C)C(=O)[C@H](Cc1ccccc1)NC(=O)[C@H](CO)NC(=O)[C@H](CO)NC(=O)[C@H](CCCNC(=N)N)NC(=O)[C@H](CCC(N)=O)NC(=O)[C@H](CC(C)C)NC(=O)[C@H](Cc1ccccc1)NC(=O)[C@H](CC(=O)O)NC(=O)[C@H](C)NC(=O)[C@H](CC(C)C)NC(=O)[C@H](CCCNC(=N)N)NC(=O)[C@H](CCC(N)=O)NC(=O)[C@@H](NC(=O)[C@H](C)NC(=O)[C@@H]1CSSC[C@H](NC(=O)[C@H](CCCNC(=N)N)NC(=O)CC[C@H](NC(=O)CCCCCCCCCCCCCCCCCCC(=O)O)C(=O)O)C(=O)N[C@@H](CC(N)=O)C(=O)N[C@@H]([C@@H](C)O)C(=O)N[C@@H](C)C(=O)N[C@@H]([C@@H](C)O)C(=O)N1)[C@@H](C)O` [Compound 82, [19CD]-isoGlu-R-C( )-NTAT-C( )-ATQRLADFLQRSSF-Gly(Me)-A-Ile(Me)-LSSTEVGSTTP-NH2] ({C20 diacid-γGlu}-RCNTATCATQRLADFLQRSSF[Sar]A[NMeI]LSSTEVGSTTP-NH2; disulfide 2-7): the 50% effective concentration (EC50) in assay [1] was found to be 0.21 nM; in assay [2], 0.53 nM.
Take `CC[C@H](C)[C@@H](C(=O)N[C@@H](CC(C)C)C(=O)N[C@@H](CO)C(=O)N[C@@H](CO)C(=O)N[C@H](C(=O)N[C@@H](CCC(=O)O)C(=O)N[C@H](C(=O)NCC(=O)N[C@@H](CO)C(=O)N[C@H](C(=O)N[C@H](C(=O)N1C[C@H](O)C[C@H]1C(N)=O)[C@@H](C)O)[C@@H](C)O)C(C)C)[C@@H](C)O)N(C)C(=O)[C@H](C)NC(=O)CN(C)C(=O)[C@H](Cc1ccccc1)NC(=O)[C@H](CO)NC(=O)[C@H](CO)NC(=O)[C@H](CCCNC(=N)N)NC(=O)[C@H](CCC(N)=O)NC(=O)[C@H](CC(C)C)NC(=O)[C@H](Cc1ccccc1)NC(=O)[C@H](CC(=O)O)NC(=O)[C@H](C)NC(=O)[C@H](CC(C)C)NC(=O)[C@H](CCCNC(=N)N)NC(=O)[C@H](CCC(N)=O)NC(=O)[C@@H](NC(=O)[C@H](C)NC(=O)[C@@H]1CSSC[C@H](NC(=O)[C@H](CCCNC(=N)N)NC(=O)CC[C@H](NC(=O)CCCCCCCCCCCCCCCCCCC(=O)O)C(=O)O)C(=O)N[C@@H](CC(N)=O)C(=O)N[C@@H]([C@@H](C)O)C(=O)N[C@@H](C)C(=O)N[C@@H]([C@@H](C)O)C(=O)N1)[C@@H](C)O` [Compound 83, [19CD]-isoGlu-R-C( )-NTAT-C( )-ATQRLADFLQRSSF-Gly(Me)-A-Ile(Me)-LSSTEVGSTT-Hyp-NH2] ({C20 diacid-γGlu}-RCNTATCATQRLADFLQRSSF[Sar]A[NMeI]LSSTEVGSTT[Hyp]-NH2; disulfide 2-7): the EC50 in assay [1] amounted to 0.13 nM; in assay [2], 0.32 nM.
Take `CC[C@H](C)[C@@H](C(=O)N[C@@H](CC(C)C)C(=O)N[C@@H](CO)C(=O)N[C@@H](CO)C(=O)N[C@H](C(=O)N[C@@H](CCC(=O)O)C(=O)N[C@H](C(=O)NCC(=O)N[C@@H](CO)C(=O)N[C@@H](CO)C(=O)N[C@H](C(=O)N1CCC[C@H]1C(N)=O)[C@@H](C)O)C(C)C)[C@@H](C)O)N(C)C(=O)[C@H](C)NC(=O)CN(C)C(=O)[C@H](Cc1ccccc1)NC(=O)[C@H](CO)NC(=O)[C@H](CO)NC(=O)[C@H](CCCNC(=N)N)NC(=O)[C@H](CCC(N)=O)NC(=O)[C@H](CC(C)C)NC(=O)[C@H](Cc1ccccc1)NC(=O)[C@H](Cc1c[nH]cn1)NC(=O)[C@H](C)NC(=O)[C@H](CC(C)C)NC(=O)[C@H](CCCNC(=N)N)NC(=O)[C@H](CCC(N)=O)NC(=O)[C@@H](NC(=O)[C@H](C)NC(=O)[C@@H]1CSSC[C@H](NC(=O)[C@H](CCCNC(=N)N)NC(=O)CC[C@H](NC(=O)CCCCCCCCCCCCCCCCCCC(=O)O)C(=O)O)C(=O)N[C@@H](CC(N)=O)C(=O)N[C@@H]([C@@H](C)O)C(=O)N[C@@H](C)C(=O)N[C@@H]([C@@H](C)O)C(=O)N1)[C@@H](C)O` [Compound 85, [19CD]-isoGlu-R-C( )-NTAT-C( )-ATQRLAHFLQRSSF-Gly(Me)-A-Ile(Me)-LSSTEVGSSTP-NH2] ({C20 diacid-γGlu}-RCNTATCATQRLAHFLQRSSF[Sar]A[NMeI]LSSTEVGSSTP-NH2; disulfide 2-7): the EC50 in assay [1] stood at 0.1 nM; in assay [2] it was 0.14 nM.
Taken in the same sequence, the figures for `CC[C@H](C)[C@@H](C(=O)N[C@@H](CC(C)C)C(=O)N[C@@H](CO)C(=O)N[C@@H](CO)C(=O)N[C@H](C(=O)N[C@@H](CCC(=O)O)C(=O)N[C@H](C(=O)NCC(=O)N[C@@H](CO)C(=O)N[C@@H](CO)C(=O)N[C@H](C(=O)N1C[C@H](O)C[C@H]1C(N)=O)[C@@H](C)O)C(C)C)[C@@H](C)O)N(C)C(=O)[C@H](C)NC(=O)CN(C)C(=O)[C@H](Cc1ccccc1)NC(=O)[C@H](CO)NC(=O)[C@H](CO)NC(=O)[C@H](CCCNC(=N)N)NC(=O)[C@H](CCC(N)=O)NC(=O)[C@H](CC(C)C)NC(=O)[C@H](Cc1ccccc1)NC(=O)[C@H](CCCC(=O)O)NC(=O)[C@H](C)NC(=O)[C@H](CC(C)C)NC(=O)[C@H](CCCNC(=N)N)NC(=O)[C@H](CCC(N)=O)NC(=O)[C@@H](NC(=O)[C@H](C)NC(=O)[C@@H]1CSSC[C@H](NC(=O)[C@H](CCCNC(=N)N)NC(=O)CC[C@H](NC(=O)CCCCCCCCCCCCCCCCCCC(=O)O)C(=O)O)C(=O)N[C@@H](CC(N)=O)C(=O)N[C@@H]([C@@H](C)O)C(=O)N[C@@H](C)C(=O)N[C@@H]([C@@H](C)O)C(=O)N1)[C@@H](C)O` [Compound 87, [19CD]-isoGlu-R-C( )-NTAT-C( )-ATQRLA-Aad-FLQRSSF-Gly(Me)-A-Ile(Me)-LSSTEVGSST-Hyp-NH2] ({C20 diacid-γGlu}-RCNTATCATQRLA[Aad]FLQRSSF[Sar]A[NMeI]LSSTEVGSST[Hyp]-NH2; disulfide 2-7) were 0.2 nM and 0.13 nM.
